Reference: ChEMBL document CHEMBL3758127, “Improving selectivity of dopamine D3 receptor ligands” (Bioorg Med Chem Lett, 2016)

Columns and labels:
[1] = target: T1, Alpha-1A adrenergic receptor (Homo sapiens, UniProt P35348); experiment: Displacement of [3H]-prazosin from human ADRA1A receptor
T1 sequence (P35348 whole entry): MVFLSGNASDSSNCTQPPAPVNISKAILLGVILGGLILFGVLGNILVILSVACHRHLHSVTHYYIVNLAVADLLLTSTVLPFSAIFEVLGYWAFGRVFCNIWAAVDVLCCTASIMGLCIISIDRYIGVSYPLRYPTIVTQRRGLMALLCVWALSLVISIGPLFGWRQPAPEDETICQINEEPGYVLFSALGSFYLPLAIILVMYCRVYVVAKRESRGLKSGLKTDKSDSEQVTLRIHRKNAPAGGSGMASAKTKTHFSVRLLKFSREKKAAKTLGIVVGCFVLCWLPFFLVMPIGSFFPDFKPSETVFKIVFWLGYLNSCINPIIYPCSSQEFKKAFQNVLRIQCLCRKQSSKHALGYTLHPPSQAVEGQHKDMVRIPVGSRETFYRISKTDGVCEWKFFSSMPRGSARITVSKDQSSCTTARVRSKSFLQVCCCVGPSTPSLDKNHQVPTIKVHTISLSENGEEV

D(2) dopamine receptor = D(2) dopamine receptor (Homo sapiens, UniProt P14416); experiment: Displacement of [3H]-spiperone from human dopamine D2S receptor expressed in HEK293 cell membranes
Homo sapiens [2] = species: Homo sapiens; experiment: Selectivity ratio of Ki for human ADRA1A receptor to Ki for human dopamine D3 receptor
Homo sapiens [3] = species: Homo sapiens; experiment: Selectivity ratio of Ki for human dopamine D2S receptor to Ki for human dopamine D3 receptor
D(3) dopamine receptor = D(3) dopamine receptor (Homo sapiens, UniProt P35462); experiment: Displacement of [3H]-spiperone from human dopamine D3 receptor expressed in CHO cell membranes
hERG (KCNH2) = hERG (KCNH2) (Homo sapiens, UniProt Q12809); experiment: Inhibition of dofetilide binding to human ERG at 1 uM; conditions: probe dofetilide
Chain of hERG (KCNH2) (Q12809 whole entry): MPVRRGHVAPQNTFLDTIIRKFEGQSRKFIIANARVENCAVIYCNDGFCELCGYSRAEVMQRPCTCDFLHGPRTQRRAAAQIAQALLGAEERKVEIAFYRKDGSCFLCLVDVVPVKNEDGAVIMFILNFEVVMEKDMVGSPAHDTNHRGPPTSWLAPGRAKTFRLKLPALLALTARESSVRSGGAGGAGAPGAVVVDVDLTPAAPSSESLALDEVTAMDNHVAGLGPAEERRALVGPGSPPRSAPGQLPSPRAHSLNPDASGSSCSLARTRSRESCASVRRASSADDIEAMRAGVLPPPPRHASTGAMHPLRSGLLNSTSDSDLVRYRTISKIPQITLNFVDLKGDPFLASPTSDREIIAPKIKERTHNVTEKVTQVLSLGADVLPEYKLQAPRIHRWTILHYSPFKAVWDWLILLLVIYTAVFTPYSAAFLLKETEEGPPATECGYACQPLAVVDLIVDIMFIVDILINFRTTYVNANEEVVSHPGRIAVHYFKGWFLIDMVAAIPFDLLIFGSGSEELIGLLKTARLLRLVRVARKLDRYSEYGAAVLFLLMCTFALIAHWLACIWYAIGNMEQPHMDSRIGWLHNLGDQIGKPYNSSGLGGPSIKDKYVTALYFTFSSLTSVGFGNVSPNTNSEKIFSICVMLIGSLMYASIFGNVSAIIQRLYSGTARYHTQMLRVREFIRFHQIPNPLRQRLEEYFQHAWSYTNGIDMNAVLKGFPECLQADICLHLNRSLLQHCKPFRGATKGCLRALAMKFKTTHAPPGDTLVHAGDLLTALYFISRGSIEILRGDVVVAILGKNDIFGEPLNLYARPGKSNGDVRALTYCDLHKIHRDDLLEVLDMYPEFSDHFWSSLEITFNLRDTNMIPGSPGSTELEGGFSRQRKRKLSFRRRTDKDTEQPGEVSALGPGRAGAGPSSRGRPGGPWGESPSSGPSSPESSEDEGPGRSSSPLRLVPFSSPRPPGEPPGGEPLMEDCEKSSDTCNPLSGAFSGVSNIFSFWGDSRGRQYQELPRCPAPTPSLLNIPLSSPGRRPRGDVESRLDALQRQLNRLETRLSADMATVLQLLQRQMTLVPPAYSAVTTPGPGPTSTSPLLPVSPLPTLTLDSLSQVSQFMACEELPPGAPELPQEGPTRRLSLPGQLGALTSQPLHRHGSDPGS

Chain of D(3) dopamine receptor (P35462 whole entry): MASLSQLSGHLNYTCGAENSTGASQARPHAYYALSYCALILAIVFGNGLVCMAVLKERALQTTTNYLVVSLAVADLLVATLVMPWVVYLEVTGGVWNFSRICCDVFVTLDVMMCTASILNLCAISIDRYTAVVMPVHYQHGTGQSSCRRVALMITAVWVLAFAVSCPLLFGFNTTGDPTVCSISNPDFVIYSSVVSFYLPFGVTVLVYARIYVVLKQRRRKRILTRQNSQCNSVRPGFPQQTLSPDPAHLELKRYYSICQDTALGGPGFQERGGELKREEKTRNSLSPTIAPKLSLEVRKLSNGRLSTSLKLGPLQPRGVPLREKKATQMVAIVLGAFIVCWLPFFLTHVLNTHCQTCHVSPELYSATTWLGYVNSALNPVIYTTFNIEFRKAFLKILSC
Chain of D(2) dopamine receptor (P14416 whole entry): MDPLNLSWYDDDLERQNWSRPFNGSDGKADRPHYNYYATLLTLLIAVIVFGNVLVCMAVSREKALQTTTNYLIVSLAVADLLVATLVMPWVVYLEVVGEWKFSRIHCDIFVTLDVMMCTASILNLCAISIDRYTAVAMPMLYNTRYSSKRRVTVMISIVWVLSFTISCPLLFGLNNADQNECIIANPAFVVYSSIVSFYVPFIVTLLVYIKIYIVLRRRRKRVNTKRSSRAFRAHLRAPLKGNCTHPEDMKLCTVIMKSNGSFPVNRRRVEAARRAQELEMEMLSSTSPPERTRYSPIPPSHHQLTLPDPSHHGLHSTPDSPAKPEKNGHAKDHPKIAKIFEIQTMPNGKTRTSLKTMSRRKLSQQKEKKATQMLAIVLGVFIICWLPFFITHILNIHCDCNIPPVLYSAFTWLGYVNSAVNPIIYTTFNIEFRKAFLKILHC

| Ki [1] [nM] | Ki (D(2) dopamine receptor; read-out: Ki) [nM] | Ratio Ki (Homo sapiens [2]) | Ratio Ki (Homo sapiens [3]) | Ki (D(3) dopamine receptor) [nM] | Ki (D(2) dopamine receptor; hek293) | Compound | inhibition at 1 µM (hERG (KCNH2)) [%] |
| --- | --- | --- | --- | --- | --- | --- | --- |
| 230 | 302 | 170 | 230 | 1.33 | – | Cc1cccc(N2CCN(CCCCNC(=O)c3ccc4ccccc4c3)CC2)c1C | – |
| 46.7 | 5030 | 3.7 | 400 | 12.7 | – | O=C(NCCCCN1CCN(c2ccccc2O)CC1)c1ccc2ccccc2c1 | – |
| 283 | 1550 | 260 | 1400 | 1.1 | – | O=C(NCCCCN1CCN(c2cccc(C(F)(F)F)c2)CC1)c1ccc2ccccc2c1 | 51 |
| 1030 | 911 | 264 | 234 | 3.9 | – | CCOC(=O)Nc1cccc(N2CCN(CCCCNC(=O)c3ccc4ccccc4c3)CC2)c1 | – |
| 50.2 | 3320 | 11 | 700 | 4.7 | – | O=C(NCCCCN1CCN(c2cccc(Cl)c2)CC1)c1ccc2ccccc2c1 | – |
| 160 | 55 | 100 | 34 | 1.6 | – | CS(=O)(=O)Nc1cccc(N2CCN(CCCCNC(=O)c3ccc4ccccc4c3)CC2)c1 | – |
| 166 | 12100 | 16 | 1170 | 10.4 | – | O=C(NCCCCN1CCN(c2ccc(Cl)cc2)CC1)c1ccc2ccccc2c1 | – |
| 29.9 | 404 | 41 | 550 | 0.73 | – | Cc1ccccc1N1CCN(CCCCNC(=O)c2ccc3ccccc3c2)CC1 | – |
| 1520 | 373 | 7600 | 1900 | 0.2 | – | O=C(NCCCCN1CCN(c2cccc(O)c2)CC1)c1ccc2ccccc2c1 | 30 |

Further lines, the compound ahead of its results:

| Compound | Ki [1] [nM] | Ki (D(2) dopamine receptor; read-out: Ki) [nM] | Ratio Ki (Homo sapiens [2]) | Ratio Ki (Homo sapiens [3]) | Ki (D(3) dopamine receptor) [nM] | Ki (D(2) dopamine receptor; hek293) | inhibition at 1 µM (hERG (KCNH2)) [%] |
| --- | --- | --- | --- | --- | --- | --- | --- |
| COc1ccccc1N1CCN(CCCCNC(=O)N2CCOCC2)CC1 | 81 | 482 | 45 | 270 | 1.8 | – | – |
| O=C(NCCCCN1CCN(c2cccc(Cl)c2Cl)CC1)c1ccc2ccccc2c1 | 104 | – | – | – | 1.08 | – | – |
| O=C1Cc2c(cccc2N2CCN(CCCCNC(=O)c3ccc4ccccc4c3)CC2)N1 | 211 | 52 | 420 | 100 | 0.5 | – | – |
| COc1ccccc1N1CCN(CCCCNC(=O)Nc2cccc(Cl)c2)CC1 | 5 | 13 | 4 | 10 | 1.3 | – | – |
| O=C(NCCCCN1CCN(c2ccccc2F)CC1)c1ccc2ccccc2c1 | 38.5 | 310 | 31 | 250 | 1.23 | – | – |
| O=C(NCCCCN1CCN(c2ccccc2Cl)CC1)c1ccc2ccccc2c1 | 29.9 | 238 | 43 | 340 | 0.7 | – | – |
| COc1ccccc1N1CCN(CCCCNC(=O)CC2CCCCC2)CC1 | 65.5 | 322 | 33 | 161 | 2 | – | – |
| O=C(NCCCCN1CCN(c2cccc3[nH]c(=O)[nH]c23)CC1)c1ccc2ccccc2c1 | 158 | 131 | 45 | 37 | 3.5 | – | – |
| COc1ccccc1N1CCN(CCCCNC(=O)N(C)c2ccccc2)CC1 | 116 | 1550 | 10 | 130 | 12 | – | – |
| O=C(NCCCCN1CCN(c2cccc3[nH]ccc23)CC1)c1ccc2ccccc2c1 | 19 | 95 | 15 | 73 | 1.3 | – | – |
| COc1ccccc1N1CCN(CCCCNC(=O)C2CCCCC2)CC1 | 963 | 168 | 1070 | 190 | 0.9 | – | 82 |
| COc1ccccc1N1CCN(CCCCNC(=O)CC(C)C)CC1 | 418 | – | 3 | – | 123 | Not Active | – |
| COc1ccccc1N1CCN(CCCCCOc2ccc3ccccc3c2)CC1 | 10.3 | 34 | 0.1 | 0.4 | 87 | – | – |
